Results from US20160271145A1, “METHOD FOR ENLARGING THE PARTICLE SIZE OF CRYSTALLINE MICROPARTICLES OF ACTIVE SUBSTANCE” (Jesalis Pharma GmbH, priority 2012, published 2016).

Legend:
[1] = microparticles by the method of DE 102008037025 A1, as stated in the background; cited from earlier work
[2] = solubility of the active substance in the solvent-antisolvent (acetone-water) mixture of the first suspension; type: physicochemical; conditions: acetone content reduced to 42% by addition of water
Excerpt: Solubilities of the active substance in the solvent-antisolvent mixture of the first suspension of 0.001-0.5 wt. % are suitable for carrying out the method according to the invention. Solubilites of 0.01-0.2 wt. %, in particular 0.02-0.2 wt. % are preferred. By solubility is meant, within the framework of the invention, the usual solubility known to a person skilled in the art, namely the solubility of a substance in thermodynamic equilibrium at room temperature in the solvent-antisolvent mixture. The solubilities are not relative to volume, i.e., they specify the solubility of the active substance in the total volume of the liquid phase of the suspension. It is clear from the stated solubilities that microparticles of active substance are present throughout the method.

[3] = habit of the particles evaluated on a microscope image (ratio of largest to smallest size); type: physicochemical
Description: The predominantly spherical shape manifests itself in that in this preferred embodiment the ratio of the largest to the smallest size of the individual particles is on average ≦2. This ratio is determined by measurement on a microscope image of the particles, by determining the ratio of the largest to the smallest size of each individual particle for at least 50 randomly selected particles and then ascertaining the average over the at least 50 particles. Preferably, the ratio of the largest to the smallest size of the individual particles is on average ≦1.6.
Immediately after the end of the stirring time, the batch is filtered using a nutsch filter with a negative pressure of 100 mbar on the filtrate side and washed with 1.0 l water. The moist filter cake has a mass of approx. 1100 g and is transferred into a 3-l container, topped up to 2160 g with water and redispersed with the Ultra Turrax T50 (|KA) at 12,000 1/min for 10 min. After this, the third d50 value is determined to be 1.28 μm from this second suspension. The span value of the particles is 1.28. The habit is evaluated microscopically as stated above (light microscope image). Habit of the particles: spherical; ratio of the largest to the smallest size of the individual particles on average=1.48. The second suspension is then spray-dried and the particles of fluticasone propionate are obtained.

[4] = granulometric analysis and span by laser diffraction (Sympatec, RODOS), reference test according to DE 102008037025 A1; type: physicochemical; conditions: Comparison example, spray-dried, dispersing pressure 5 bar
Description: A 100-ml stirred vessel with blade stirrer is charged with 160 g of Y-stabilized zirconium oxide spheres with a diameter of 0.5 mm plus 30 ml of water. A solution of 0.6 g fluticasone propionate in 10 ml acetone is added to these, with stirring. After stirring for 5 min, a solution of 1.8 g fluticasone in 30 ml acetone and in the same ratio 90 ml water are added dropwise within 10 min, with stirring at 1300 rev/min. Simultaneously, product suspension is drawn off, with approximately constant filling level. Addition and product withdrawal can also take place quasicontinuously in smaller portions without any adverse effect on the result, if the above time frame is maintained. After addition, to complete the yield rinsing is carried out with approx. 60 ml water. Alternatively, the suspension in the crystallizer can be left as starting suspension for the subsequent batch. Altogether, 180 g of suspension with a solids content of 13 mg per ml is obtained. The suspension is then spray-dried Granulometric analysis and span determination were effected by means of laser diffraction (Sympatec Helps, RODOS dispersing system, dispersing pressure 5 bar).

[5] = particle size (d50) and span by laser diffraction, Mastersizer E; type: physicochemical; conditions: for d50 value of the particle size distribution (first d50): acetone:water 1:1
Excerpt: The particle size distribution and the diameters of the particles within the framework of the invention are relative to volume. dx means that x percent by volume (vol. %) of the particles have a diameter which is smaller than the stated value. With a d50 value of 1 μm therefore 50 vol. % of the particles have a diameter smaller than 1 μm (micrometre). If d10 or […] is 1 μm, 10 or 90 vol. %, respectively, of the particles have a diameter smaller than 1 μm. The d50 value is also called average particle size or average particle diameter.
Within the framework of the invention, the average particle size (d50 values) and the particle size distribution were measured by means of laser diffraction, which provides a distribution of the particle sizes. A Mastersizer E (Malvern Instruments) was used. 5 mg solid is dispersed for 20 min in 5 ml 0.1% aqueous sodium dodecyl sulphate solution using ultrasound (2 mm sonotrode, sonicator UPS 200, Dr. Hielscher GmbH, 30% amplitude) and placed in the measurement cell of the Mastersizer E, an optical concentration of 18% is set and measurement is carried out (Fraunhofer evaluation). The span was calculated from the d10, d50 and d90 values ((d90 −d10);d50 ).

[6] = Example 1, light microscope image
[7] = Example 2, mixture of the second suspensions of the preceding and subsequent batch

CCC(=O)O[C@]1(C(=O)SCF)[C@H](C)C[C@H]2[C@@H]3C[C@H](F)C4=CC(=O)C=C[C@]4(C)[C@@]3(F)[C@@H](O)C[C@@]21C [fluticasone propionate]
d50 values [1]: 1-2 μm | span values [1]: ≥ 1.7 | solubility of fluticasone propionate [2]: 0.032 wt. % | habit of the particles [3, 6]: spherical | ratio of the largest to the smallest size of the individual particles on average [3, 6]: 1.48 | habit of the particles ([3]; Example 2, subsequent batch): spherical | ratio of the largest to the smallest size of the individual particles on average ([3]; Example 2, subsequent batch): 1.45 | d50 [4]: 1.47 μm | span [4]: 1.78 | second d50 ([5]; Example 1, after 4.5 h stirring, 42% acetone): 1.12 μm | span value of the particles ([5]; Example 1, second suspension): 1.28 | third d50 value ([5]; Example 1, second suspension after further 17 h stirring, filtration and redispersing in water): 1.28 μm | d50 value of the particle size distribution (first d50) ([5]; Example 1, starting suspension): 0.98 μm | d50 value [5, 7]: 1.28 μm | span value of the distribution [5, 7]: 1.28 | second d50 value ([5]; Example 2, preceding batch, after 4.0 h stirring, 42% acetone): 1.12 μm | span value of the distribution ([5]; Example 2, preceding batch, second suspension): 1.29 | third d50 value ([5]; Example 2, preceding batch, second suspension after further 13 h stirring): 1.24 μm | d50 value of the particle size distribution (first d50) ([5]; Example 2, preceding batch, starting suspension): 0.99 μm | intermediate d50 value ([5]; Example 2, subsequent batch, after 3.5 h stirring, 42% acetone): 1.09 μm | span value of the distribution ([5]; Example 2, subsequent batch, second suspension): 1.24 | third d50 value ([5]; Example 2, subsequent batch, second suspension, stirring time increased to 18 h): 1.30 μm | d50 value of the particle size distribution (first d50) ([5]; Example 2, subsequent batch, starting suspension): 0.97 μm
